Results taken from patent publication US8575178B2, “Isothiazolo-pyrimidinedione derivatives as TRPA1 modulators” (Glenmark Pharmaceuticals S.A., priority 2009, dated 2013).

Key:
[1] = molecular target: T1, human TRPA1 (Homo sapiens, UniProt O75762); assay: 45Calcium uptake assay, inhibition of AITC induced calcium uptake in human TRPA1 expressing CHO cells; assay type: cell-based; settings: AITC 30 μM; for inhibition at 1 µM: 1.0 μM compound, read-out: human TRPA1 Percentage inhibition at 1.0 μM; for inhibition at 10 µM: 10.0 μM compound, read-out: human TRPA1 Percentage inhibition at 10.0 μM
T1 construct: expressed in transfected cells; host or cells: CHO cells (G-418 selection)
T1 sequence (O75762 whole entry): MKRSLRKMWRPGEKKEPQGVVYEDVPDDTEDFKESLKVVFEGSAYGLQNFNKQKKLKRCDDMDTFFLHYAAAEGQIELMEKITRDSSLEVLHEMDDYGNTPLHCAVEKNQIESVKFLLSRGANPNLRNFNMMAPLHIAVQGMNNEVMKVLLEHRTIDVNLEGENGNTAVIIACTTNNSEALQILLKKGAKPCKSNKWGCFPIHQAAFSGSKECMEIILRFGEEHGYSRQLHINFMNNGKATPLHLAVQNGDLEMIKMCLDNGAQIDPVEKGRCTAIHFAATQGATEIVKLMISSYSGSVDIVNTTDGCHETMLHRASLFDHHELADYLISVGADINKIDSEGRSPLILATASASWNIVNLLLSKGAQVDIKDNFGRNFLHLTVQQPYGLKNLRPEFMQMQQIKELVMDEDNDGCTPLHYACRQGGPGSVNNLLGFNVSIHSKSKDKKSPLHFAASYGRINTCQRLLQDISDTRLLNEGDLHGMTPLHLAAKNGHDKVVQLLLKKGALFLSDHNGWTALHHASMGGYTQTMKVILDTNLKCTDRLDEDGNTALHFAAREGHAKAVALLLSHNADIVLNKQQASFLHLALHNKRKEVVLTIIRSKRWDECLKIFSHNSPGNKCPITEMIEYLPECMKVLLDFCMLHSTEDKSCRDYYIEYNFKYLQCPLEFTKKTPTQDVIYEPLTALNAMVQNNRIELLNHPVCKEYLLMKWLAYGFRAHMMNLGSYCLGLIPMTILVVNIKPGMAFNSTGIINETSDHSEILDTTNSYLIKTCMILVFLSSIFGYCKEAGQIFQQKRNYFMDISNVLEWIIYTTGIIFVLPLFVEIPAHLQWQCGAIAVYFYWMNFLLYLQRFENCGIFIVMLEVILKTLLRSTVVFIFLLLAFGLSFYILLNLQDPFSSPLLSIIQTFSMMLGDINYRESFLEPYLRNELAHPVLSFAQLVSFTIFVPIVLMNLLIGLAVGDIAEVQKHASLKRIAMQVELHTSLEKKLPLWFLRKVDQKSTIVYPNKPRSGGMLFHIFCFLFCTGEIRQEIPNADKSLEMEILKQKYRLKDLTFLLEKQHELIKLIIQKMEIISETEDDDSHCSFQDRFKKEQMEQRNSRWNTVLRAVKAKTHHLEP
Excerpt: (§1) The illustrative examples of the present invention are screened for TRPA1 activity according to a modified procedure described in (a) Tóth, A. et al. Life Sciences, 2003, 73, 487-498. (b) McNamara C, R. et al, Proc. Natl. Acad. Sci. U.S.A., 2007, 104, 13525-13530. The screening of the compounds can be carried out by other methods and procedures known to persons skilled in the art.
(§2) Screening for TRPA1 Antagonist Using the ^45Calcium Uptake Assay:
(§3) The inhibition of TRPA1 receptor activation was measured as inhibition of allyl isothiocyanate (AITC) induced cellular uptake of radioactive calcium.
(§4) Test compounds were dissolved in 100% DMSO to prepare 10 mM stock and then diluted using plain medium with 0.1% BSA and 1.8 mM CaCl2 to get the desired concentration. The final concentration of DMSO in the reaction was 0.5% (v/v). Human TRPA1 expressing CHO cells were grown in F-12 DMEM medium with 10% FBS, 1% penicillin-streptomycin solution, and 400 μg/ml of G-418. Rat TRPA1 expressing CHO cells were grown in F-12 DMEM medium with 10% FBS, 1% penicillin-streptomycin solution, and 400 μg/ml of Zeocin. Cells were seeded 24 h prior to the assay in 96 well plates so as to get ˜50,000 cells per well on the day of experiment. Cells were treated with the test compounds for 10 minutes followed by the addition of AITC at a final concentration of 30 μM (for human TRPA1) and/or 10 μM (for rat TRPA1) and 5 μCi/ml ^45Ca^+2 for 3 minutes. Cells were washed and lysed using a buffer containing 1% Triton X-100, 0.1% deoxycholate and 0.1% SDS. Radioactivity in the lysate was measured in a Packard TopCount after addition of liquid scintillant. (Toth et al, Life Sciences (2003) 73, 487-498; McNamara C R et al, Proceedings of the National Academy of Sciences, (2007) 104, 13525-13530).
(§5) Concentration response curves were plotted as a % of maximal response obtained in the absence of test antagonist. IC50 values can be calculated from concentration response curve by nonlinear regression analysis using GraphPad PRISM software.

[2] = molecular target: T2, rat TRPA1 (Rattus norvegicus, UniProt Q6RI86); assay: 45Calcium uptake assay, inhibition of AITC induced calcium uptake in rat TRPA1 expressing CHO cells; assay type: cell-based; settings: AITC 10 μM; for inhibition at 1 µM: 1.0 μM compound, read-out: rat TRPA1 Percentage inhibition at 1.0 μM; for inhibition at 10 µM: 10.0 μM compound, read-out: rat TRPA1 Percentage inhibition at 10.0 μM
T2 construct: expressed in transfected cells; host or cells: CHO cells (Zeocin selection)
T2 sequence (Q6RI86 whole entry): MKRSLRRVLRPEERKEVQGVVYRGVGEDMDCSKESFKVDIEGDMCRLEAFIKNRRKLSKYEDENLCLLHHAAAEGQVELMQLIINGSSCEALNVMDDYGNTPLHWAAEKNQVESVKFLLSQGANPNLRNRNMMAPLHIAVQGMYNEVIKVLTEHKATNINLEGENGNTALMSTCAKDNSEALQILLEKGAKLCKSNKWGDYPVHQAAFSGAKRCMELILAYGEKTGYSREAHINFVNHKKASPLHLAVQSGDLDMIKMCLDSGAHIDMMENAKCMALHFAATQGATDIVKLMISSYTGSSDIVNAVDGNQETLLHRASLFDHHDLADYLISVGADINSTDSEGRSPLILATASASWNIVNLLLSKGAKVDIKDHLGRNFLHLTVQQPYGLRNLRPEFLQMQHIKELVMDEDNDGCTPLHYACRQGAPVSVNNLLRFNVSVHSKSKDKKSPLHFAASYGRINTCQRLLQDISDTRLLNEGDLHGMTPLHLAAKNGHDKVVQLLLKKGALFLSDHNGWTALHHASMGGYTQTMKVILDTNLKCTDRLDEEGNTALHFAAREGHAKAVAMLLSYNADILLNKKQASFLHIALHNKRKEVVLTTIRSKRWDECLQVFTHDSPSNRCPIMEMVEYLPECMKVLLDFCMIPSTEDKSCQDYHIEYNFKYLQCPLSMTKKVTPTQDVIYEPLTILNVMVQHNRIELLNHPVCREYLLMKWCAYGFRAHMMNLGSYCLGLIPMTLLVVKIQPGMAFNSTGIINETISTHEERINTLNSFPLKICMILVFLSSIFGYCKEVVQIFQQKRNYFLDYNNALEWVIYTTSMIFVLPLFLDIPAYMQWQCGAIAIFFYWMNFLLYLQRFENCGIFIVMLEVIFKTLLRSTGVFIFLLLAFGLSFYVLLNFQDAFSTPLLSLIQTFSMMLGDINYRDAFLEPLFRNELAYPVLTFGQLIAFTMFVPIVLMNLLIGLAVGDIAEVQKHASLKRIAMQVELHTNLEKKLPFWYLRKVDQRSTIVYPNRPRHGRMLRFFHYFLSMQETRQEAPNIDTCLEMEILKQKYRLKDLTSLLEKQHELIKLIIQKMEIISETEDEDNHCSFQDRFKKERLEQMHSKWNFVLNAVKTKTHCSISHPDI
Excerpt: as §1, §2, §3, §4, §5

Row | inhibition at 1 µM [1] [%] | inhibition at 10 µM [1] [%] | IC50 [1] [nM] | IC50 [2] [nM] | inhibition at 1 µM [2] [%] | inhibition at 10 µM [2] [%] | Structure (SMILES)
1 | 99.9 | 99.5 | < 50 | > 100 | 97.7 | 100 | Cn1c(=O)c2c(CC(=O)Nc3nc(-c4ccc(Cl)c(Cl)c4)cs3)nsc2n(C)c1=O [Example 26, N-[4-(3,4-Dichlorophenyl)-1,3-thiazol-2-yl]-2-(5,7-dimethyl-4,6-dioxo-4,5,6,7-tetrahydro[1,2]thiazolo[5,4-d]pyrimidin-3-yl)acetamide]
2 | 99.8 | 100 | < 50 |  | 72.2 | 100 | Cn1c(=O)c2c(CC(=O)Nc3nc(-c4ccc(C(F)(F)F)c(F)c4)cs3)snc2n(C)c1=O [Example 4, 2-(5,7-Dimethyl-4,6-dioxo-4,5,6,7-tetrahydro[1,2]thiazolo[3,4-d]pyrimidin-3-yl)-N-{4-[3-fluoro-4-(trifluoromethyl)phenyl]-1,3-thiazol-2-yl}acetamide]
3 | 99.8 | 99.9 |  |  | 96.5 | 95.8 | Cn1c(=O)c2c(CC(=O)Nc3nc(-c4ccc(C(F)(F)F)c(F)c4F)cs3)nsc2n(C)c1=O [Example 39, N-{4-[2,3-Difluoro-4-(trifluoromethyl)phenyl]-1,3-thiazol-2-yl}-2-(5,7-dimethyl-4,6-dioxo-4,5,6,7-tetrahydro[1,2]thiazolo[5,4-d]pyrimidin-3-yl)acetamide]
4 | 99.5 | 100 | < 50 | < 50 | 100 | 100 | Cn1c(=O)c2c(CC(=O)Nc3nc(-c4ccc(C(F)(F)F)cc4F)cs3)nsc2n(C)c1=O [Example 21, 2-(5,7-Dimethyl-4,6-dioxo-4,5,6,7-tetrahydro[1,2]thiazolo[5,4-d]pyrimidin-3-yl)-N-{4-[2-fluoro-4-(trifluoromethyl)phenyl]-1,3-thiazol-2-yl}acetamide]
5 | 100 | 99.9 | < 50 | < 50 | 100 | 100 | Cn1c(=O)c2c(CC(=O)Nc3nc(-c4cc(F)c(C(F)(F)F)c(F)c4)cs3)nsc2n(C)c1=O [Example 38, N-{4-[3,5-difluoro-4-(trifluoromethyl)phenyl]-1,3-thiazol-2-yl}-2-(5,7-dimethyl-4,6-dioxo-4,5,6,7-tetrahydro[1,2]thiazolo[5,4-d]pyrimidin-3-yl)acetamide]
6 | 100 | 100 | < 50 |  | 22.9 | 39.7 | Cn1c(=O)c2c(CC(=O)Nc3ccn(-c4ccc(Br)cc4)n3)snc2n(C)c1=O [Example 11, N-[1-(4-Bromophenyl)-1H-pyrazol-3-yl]-2-(5,7-dimethyl-4,6-dioxo-4,5,6,7-tetrahydro[1,2]thiazolo[3,4-d]pyrimidin-3-yl)acetamide]

More lines, now with the values behind:

Row | Structure (SMILES) | inhibition at 1 µM [1] [%] | inhibition at 10 µM [1] [%] | IC50 [1] [nM] | IC50 [2] [nM] | inhibition at 1 µM [2] [%] | inhibition at 10 µM [2] [%]
7 | Cn1c(=O)c2c(CC(=O)Nc3nc(-c4ccc(F)c(C(F)(F)F)c4F)cs3)nsc2n(C)c1=O [Example 37, N-{4-[2,4-Difluoro-3-(trifluoromethyl)phenyl]-1,3-thiazol-2-yl}-2-(5,7-dimethyl-4,6-dioxo-4,5,6,7-tetrahydro[1,2]thiazolo[5,4-d]pyrimidin-3-yl)acetamide] | 98.3 | 99.3 | < 50 | < 50 |  | 
8 | Cn1c(=O)c2c(CC(=O)Nc3nc(-c4cc(F)cc(C(F)(F)F)c4)cs3)nsc2n(C)c1=O [Example 22, 2-(5,7-Dimethyl-4,6-dioxo-4,5,6,7-tetrahydro[1,2]thiazolo[5,4-d]pyrimidin-3-yl)-N-{4-[3-fluoro-5-(trifluoromethyl)phenyl]-1,3-thiazol-2-yl}acetamide] | 100 | 100 | < 50 |  | 98.3 | 100
9 | Cn1c(=O)c2c(CC(=O)Nc3nc(-c4ccc(F)c(C(F)(F)F)c4)cs3)nsc2n(C)c1=O [Example 20, 2-(5,7-Dimethyl-4,6-dioxo-4,5,6,7-tetrahydro[1,2]thiazolo[5,4-d]pyrimidin-3-yl)-N-{4-[4-fluoro-3-(trifluoromethyl)phenyl]-1,3-thiazol-2-yl}acetamide] | 99.6 | 99.8 | < 50 | < 50 | 99.7 | 100
10 | Cn1c(=O)c2c(CC(=O)Nc3nc(-c4cccc(C(F)(F)F)c4)cs3)snc2n(C)c1=O [Example 1, 2-(5,7-Dimethyl-4,6-dioxo-4,5,6,7-tetrahydro[1,2]thiazolo[3,4-d]pyrimidin-3-yl)-N-{4-[3-(trifluoromethyl)phenyl]-1,3-thiazol-2-yl}acetamide] | 95.2 | 100 | < 50 | > 100 | 71.3 | 100
11 | Cn1c(=O)c2c(CC(=O)Nc3nc(-c4ccc(C(F)(F)F)c(F)c4)cs3)nsc2n(C)c1=O [Example 19, 2-(5,7-Dimethyl-4,6-dioxo-4,5,6,7-tetrahydro[1,2]thiazolo[5,4-d]pyrimidin-3-yl)-N-{4-[3-fluoro-4-(trifluoromethyl)phenyl]-1,3-thiazol-2-yl}acetamide] | 99.7 | 100 | < 50 | < 50 | 99.5 | 99.3
12 | Cn1c(=O)c2c(CC(=O)Nc3nc(-c4ccc(Cl)c(OC(F)(F)F)c4)cs3)nsc2n(C)c1=O [Example 31, 2-(5,7-Dimethyl-4,6-dioxo-4,5,6,7-tetrahydro[1,2]thiazolo[5,4-d]pyrimidin-3-yl)-N-{4-[4-chloro-3-(trifluoromethoxy)phenyl]-1,3-thiazol-2-yl}acetamide] | 99.2 | 99.2 |  |  | 99.6 | 96.2
13 | Cn1c(=O)c2c(CC(=O)Nc3nc(-c4ccc(F)c(OC(F)(F)F)c4)cs3)snc2n(C)c1=O [Example 3, 2-(5,7-Dimethyl-4,6-dioxo-4,5,6,7-tetrahydro[1,2]thiazolo[3,4-d]pyrimidin-3-yl)-N-{4-[4-fluoro-3-(trifluoromethoxy)phenyl]-1,3-thiazol-2-yl}acetamide] | 95.5 | 99.5 | < 50 | > 100 | 68.5 | 98.3
14 | Cn1c(=O)c2c(CC(=O)Nc3nc(-c4cccc(C(F)(F)F)c4F)cs3)snc2n(C)c1=O [Example 5, 2-(5,7-Dimethyl-4,6-dioxo-4,5,6,7-tetrahydro[1,2]thiazolo[3,4-d]pyrimidin-3-yl)-N-{4-[2-fluoro-3-(trifluoromethyl)phenyl]-1,3-thiazol-2-yl}acetamide] | 98.1 | 99.1 | < 50 |  | 95.6 | 98.5
15 | Cn1c(=O)c2c(CC(=O)Nc3nc(-c4cccc(C(F)(F)F)c4F)cs3)nsc2n(C)c1=O [Example 23, 2-(5,7-Dimethyl-4,6-dioxo-4,5,6,7-tetrahydro[1,2]thiazolo[5,4-d]pyrimidin-3-yl)-N-{4-[2-fluoro-3-(trifluoromethyl)phenyl]-1,3-thiazol-2-yl}acetamide] | 99.3 | 100 | < 50 | < 50 | 100 | 100
16 | Cn1c(=O)c2c(CC(=O)Nc3nc(-c4cc(Cl)cc(C(F)(F)F)c4)cs3)nsc2n(C)c1=O [Example 32, 2-(5,7-Dimethyl-4,6-dioxo-4,5,6,7-tetrahydro[1,2]thiazolo[5,4-d]pyrimidin-3-yl)-N-{4-[3-chloro-5-(trifluoromethyl)phenyl]-1,3-thiazol-2-yl}acetamide] | 99.2 | 99.4 |  |  | 99.8 | 100
17 | Cn1c(=O)c2c(CC(=O)Nc3nc(-c4ccc(F)cc4F)cs3)nsc2n(C)c1=O [Example 28, N-[4-(2,4-Difluorophenyl)-1,3-thiazol-2-yl]-2-(5,7-dimethyl-4,6-dioxo-4,5,6,7-tetrahydro[1,2]thiazolo[5,4-d]pyrimidin-3-yl)acetamide] | 98 | 99.6 | < 50 |  | 92.8 | 100
